Data published in paper PMC9945734 (BMC Medicine, 2023).
“And” between values parts separate entries of the source, which are not always exact repeats. Equal entries are not always repeated.

Tested on: PC-3-KQ and PC-3-KR cells
Assay: RNA-sequencing and differential gene expression
Assay type: cell-based, human
Parameters: CEP19 tpm_KQ_NTZ / CCNA1 tpm_KQ_NTZ / BTN3A3 tpm_KQ_NTZ / CAPSL tpm_KQ_NTZ / CELF3 tpm_KQ_NTZ / C5orf63 tpm_KQ_NTZ / tpm MSMP / tpm MYH7B / tpm CACNG8 / CNTNAP3B tpm_KQ_NTZ / IL21R tpm_KQ_NTZ / CYP8B1 tpm_KQ_NTZ / C2orf78 tpm_KQ_NTZ / CALB1 tpm_KQ_NTZ / COL4A3 tpm_KQ_NTZ / CFB tpm_KQ_NTZ / PFKFB1 tpm_KQ_NTZ / BTBD11 tpm_KQ_NTZ: scale not given here
[1] = PC-3-KQ cells with NTZ, RNA-Seq, replicates 1-3, listed as NTZ

How did the “reversed genes that were downregulated by KLF5^K369Q” value (5 μM, 48 h) turn out when `CC(=O)Oc1ccccc1C(=O)Nc1ncc([N+](=O)[O-])s1` [Nitazoxanide] was run?
Its value is 114 genes.

What about the “reversed genes that were upregulated by KLF5^K369Q” value (5 μM, 48 h) of the same compound?
The value was 127 genes.

What about the “differentially expressed genes whose KLF5^K369Q-modulated expression patterns were reversed” value (5 μM, 48 h, of 2836 differentially expressed genes) of the same compound?
The value was 241 genes.

What about the “BTBD11 tpm_KQ_NTZ” value [1] of the same compound?
The value was 0.02343 (2×) and -0.3135.

What about the “BTN3A3 tpm_KQ_NTZ” value [1] of the same compound?
Its value is 0.1048 and 0.06849 and 0.4183.

What about the “C2orf78 tpm_KQ_NTZ” value [1] of the same compound?
The value was -0.1653 (2×) and -0.2557.

What about the “C5orf63 tpm_KQ_NTZ” value [1] of the same compound?
Its value is -1.246 and -0.6828 (2×).

And the “CALB1 tpm_KQ_NTZ” value [1]?
The value was -0.5505 and -0.5318 and -0.6014.

What about the “CAPSL tpm_KQ_NTZ” value [1] of the same compound?
Its value is 0.1399 and 0.07957 and 0.02817.

What about the “CCNA1 tpm_KQ_NTZ” value [1] of the same compound?
Its value is 0.2896 and 0.0474 and -0.0329.

And the “CELF3 tpm_KQ_NTZ” value [1]?
The value was -0.6626 and -0.09641 and -1.398.

And the “CEP19 tpm_KQ_NTZ” value [1]?
The value was -0.2178 and -0.1674 and -0.2603.

And the “CFB tpm_KQ_NTZ” value [1]?
The value was 1.072 and 0.8732 and 1.006.

And the “CNTNAP3B tpm_KQ_NTZ” value [1]?
The value was -1.003 and -0.7486 and -1.333.

And the “COL4A3 tpm_KQ_NTZ” value [1]?
The value was 0.8606 and -0.008515 and 0.09381.

What about the “CSF1R tpm_KQ_NTZ” value [1] of the same compound?
The value was -0.4278 and 0.5782 and -0.287.

What about the “CSF3 tpm_KQ_NTZ” value [1] of the same compound?
The value was -0.1666 and -0.05545 and -0.03443.

What about the “CYP8B1 tpm_KQ_NTZ” value [1] of the same compound?
Its value is 0.5351 and -0.06455 and 0.239.

What about the “CYSTM1 tpm_KQ_NTZ” value [1] of the same compound?
The value was 0.5286 and 0.6762 and 0.7083.

And the “DEPTOR tpm_KQ_NTZ” value [1]?
Its value is -0.1625 and 0.109 and -0.5598.

What about the “DISP1 tpm_KQ_NTZ” value [1] of the same compound?
Its value is 0.9822 and -0.1345 and 0.01324.

What about the “DMC1 tpm_KQ_NTZ” value [1] of the same compound?
The value was 0.2859 and -0.2731 and -0.5992.

What about the “EFCAB6 tpm_KQ_NTZ” value [1] of the same compound?
Its value is -0.1794 and -0.1071 (2×).

And the “ESPN tpm_KQ_NTZ” value [1]?
The value was 0.1813 and 0.02389 and 0.09131.

What about the “FA2H tpm_KQ_NTZ” value [1] of the same compound?
Its value is 0.4488 and 0.5616 and 0.5267.

And the “FAM43A tpm_KQ_NTZ” value [1]?
The value was 0.03072 and -0.121 and -0.09259.

What about the “FAM83D tpm_KQ_NTZ” value [1] of the same compound?
Its value is -0.5519 and -0.6015 and -0.7989.

What about the “FAM178B tpm_KQ_NTZ” value [1] of the same compound?
Its value is 0.08123 and 0.3901 and 0.3146.

And the “FANCI tpm_KQ_NTZ” value [1]?
Its value is -0.4967 and -0.5797 and -1.118.

What about the “FANCL tpm_KQ_NTZ” value [1] of the same compound?
The value was -0.04507 and -0.1672 and -0.6878.

What about the “FIBCD1 tpm_KQ_NTZ” value [1] of the same compound?
Its value is 0.8945 (2×) and 0.4936.

And the “FLI1 tpm_KQ_NTZ” value [1]?
Its value is 0.163 and 0.09153 and 0.3476.

What about the “FLRT1 tpm_KQ_NTZ” value [1] of the same compound?
The value was 0.02501 and 0.1658 and 0.1094.

What about the “FOXI1 tpm_KQ_NTZ” value [1] of the same compound?
The value was -0.2315 and -0.3686 and -0.4151.

And the “FOXP3 tpm_KQ_NTZ” value [1]?
Its value is -0.3022 and -0.9252 and -0.8607.

And the “FRY tpm_KQ_NTZ” value [1]?
The value was 0.3424 and 1.196 and 0.3898.

And the “FUT3 tpm_KQ_NTZ” value [1]?
Its value is 0.2065 and 0.1078 and 0.1213.

And the “FZD4 tpm_KQ_NTZ” value [1]?
Its value is -0.8248 and -0.9863 and -1.191.

What about the “GBX2 tpm_KQ_NTZ” value [1] of the same compound?
Its value is 0.2922 and 0.1832 and -0.01058.

What about the “GCNT3 tpm_KQ_NTZ” value [1] of the same compound?
The value was 0.5624 and 1.46 and 1.425.

What about the “GDPD3 tpm_KQ_NTZ” value [1] of the same compound?
Its value is 0.1549 and 0.8212 and 1.086.

What about the “GPR19 tpm_KQ_NTZ” value [1] of the same compound?
The value was -0.4052 and -1.088 and -0.1444.

What about the “H3C1 tpm_KQ_NTZ” value [1] of the same compound?
The value was -0.4909 and -0.7381 and -0.1713.

What about the “HAS3 tpm_KQ_NTZ” value [1] of the same compound?
Its value is -0.7244 and -1.045 and -1.209.

What about the “HSD3B1 tpm_KQ_NTZ” value [1] of the same compound?
Its value is 0.4147 and -0.0829 and 0.06266.

And the “HSPB8 tpm_KQ_NTZ” value [1]?
The value was 1.202 and 1.163 and 1.373.

What about the “IFITM10 tpm_KQ_NTZ” value [1] of the same compound?
The value was 0.594 and 0.6249 and 1.26.

And the “IGF2BP1 tpm_KQ_NTZ” value [1]?
Its value is -0.6156 and 0.2139 and -0.1353.

What about the “IGFBP4 tpm_KQ_NTZ” value [1] of the same compound?
The value was -0.9714 and -1.052 and -1.107.

What about the “IGSF23 tpm_KQ_NTZ” value [1] of the same compound?
The value was 0.2138 and -0.14 and 0.153.

And the “IL1RN tpm_KQ_NTZ” value [1]?
Its value is 0.4172 and 0.5103 and 0.3837.

What about the “IL21R tpm_KQ_NTZ” value [1] of the same compound?
Its value is 0.1341 and 0.3531 and -0.6262.

What about the “IL32 tpm_KQ_NTZ” value [1] of the same compound?
The value was 0.1915 and 0.128 and 0.2784.

What about the “IL36RN tpm_KQ_NTZ” value [1] of the same compound?
The value was 0.2015 and -0.02405 and -0.08881.

And the “KDELR2 tpm_KQ_NTZ” value [1]?
Its value is 0.386 and 0.3336 and 0.3028.

And the “KIAA0319 tpm_KQ_NTZ” value [1]?
The value was 0.8897 and 0.7646 and 0.5228.

And the “KLK9 tpm_KQ_NTZ” value [1]?
Its value is -0.2259 and -0.6416 and -0.6693.

And the “KRT17 tpm_KQ_NTZ” value [1]?
The value was -0.1797 and -0.2377 and -0.2552.

And the “LGALS12 tpm_KQ_NTZ” value [1]?
The value was -0.7737 and -0.7092 and -1.317.

What about the “LILRB3 tpm_KQ_NTZ” value [1] of the same compound?
The value was -0.849 and 0.2071 and -0.3616.

And the “LOC105373989 tpm_KQ_NTZ” value [1]?
The value was 0.1747 and 0.1405 and -0.01628.

What about the “LOC107985532 tpm_KQ_NTZ” value [1] of the same compound?
The value was -0.4716 and -1.399 and -0.5849.

And the “LRRK1 tpm_KQ_NTZ” value [1]?
Its value is 0.2201 and 0.2241 and -0.1686.

What about the “LTB tpm_KQ_NTZ” value [1] of the same compound?
The value was 0.298 and 0.1911 and 0.1215.

And the “LY6K tpm_KQ_NTZ” value [1]?
The value was 0.361 and 0.2663 and 0.3215.

And the “MAP2 tpm_KQ_NTZ” value [1]?
The value was 1.038 and 0.7956 and 0.3906.

And the “MCM4 tpm_KQ_NTZ” value [1]?
Its value is -0.8715 and -0.9161 and -1.036.

What about the “METRNL tpm_KQ_NTZ” value [1] of the same compound?
The value was -0.141 and -0.421 and -0.3102.

What about the “MFSD2A tpm_KQ_NTZ” value [1] of the same compound?
The value was 0.8546 and 0.3607 and 0.5375.

And the “MMP9 tpm_KQ_NTZ” value [1]?
Its value is 0.4129 and 0.2062 and 0.3482.

And the “MNX1 tpm_KQ_NTZ” value [1]?
Its value is 0.2275 and -0.9 and 0.1118.

And the “MROH8 tpm_KQ_NTZ” value [1]?
The value was -1.87 and -0.2315 and 0.3664.

What about the “MVP tpm_KQ_NTZ” value [1] of the same compound?
Its value is 0.5977 and 0.4827 and 0.3544.

And the “MYBL2 tpm_KQ_NTZ” value [1]?
The value was -0.1727 and -0.165 and -0.155.

What about the “NAV1 tpm_KQ_NTZ” value [1] of the same compound?
Its value is 0.9647 (2×) and 0.5494.

And the “NECTIN4 tpm_KQ_NTZ” value [1]?
The value was 1.229 and 1.239 and 1.198.

And the “NKD1 tpm_KQ_NTZ” value [1]?
The value was 0.09084 and 0.3652 and -0.1886.

What about the “NLRC5 tpm_KQ_NTZ” value [1] of the same compound?
Its value is 0.9096 and 0.9955 and 0.3927.

And the “NR4A2 tpm_KQ_NTZ” value [1]?
Its value is -0.3921 and 0.001744 and -0.3514.

What about the “NRK tpm_KQ_NTZ” value [1] of the same compound?
The value was -0.02829 and -0.09407 and -0.0544.
